These results are taken from patent US4892882A, “Carbamoyloxy-isoxazole derivatives, their preparation and insecticidal compositions containing them” (priority 1980, dated 1990).

Series [1] relates to green peach aphid (Myzus persicae). Put plainly: Control of green peach aphid, contact activity. The format is in vivo. The conditions noted are these: topical, 72 hours, 25° C., read-out: Percentage mortality of green peach aphid, Contact. Here is the method:
(§1) A wettable powder was prepared by homogeneously mixing and pulverizing three times in a hammer mill 10 parts by weight of one of the test compounds indicated in Tables 2 and 3, 4 parts by weight of sodium dodecylbenzene sulphonate, 2 parts by weight of polyvinyl alcohol and 84 parts by weight of clay. The wettable powder thus prepared was then diluted with water to the concentration indicated in Table 1, and then 0.01% w/v of Gramin (a spreader) was added.
The resulting diluted solution was then sprayed onto the leaves of a cabbage bearing green peach aphids (Myzus persicae) in an amount of 10 ml per leaf. The leaf stalk of each leaf was then placed in a 30 ml bottle containing water and the mouth of the bottle was plugged with cotton wool. The bottles were then left in a room maintained at 25° C.

Series [2] has the same test system. Put plainly: Control of green peach aphid, systemic activity. The series is classed as in vivo. The conditions noted are these: 72 hours, 25° C., read-out: Percentage mortality of green peach aphid, Systemic. The procedure:
as §1
The suspensions were then poured into 30 ml bottles. Leaves of the Chinese mustard "Komatsuna" bearing green peach aphids were then placed in the bottles and the mouths of the bottles were plugged with cotton wool. The bottles were placed in a room maintained at 25° C. for 72 hours, after which the percentage mortality of the aphids was assessed.

Series [3] deals with brown planthopper (Nilaparvata lugens). Put plainly: Activity against the brown planthopper, dust on rice seedlings. The conditions noted are these: topical, 10 mg per pot, resistant strain, final instar larvae, 72 hours, 25° C., read-out: Percentage mortality, Brown planthopper. The series is classed as in vivo. Here is the method:
(§2) A dust was prepared by homogeneously mixing and pulverizing twice with a pulverizer 2 parts by weight of each in turn of the test compounds indicated in Table 4 and 98 parts by weight of clay. The dusts were then sprayed onto rice seedlings planted in plastic pots and covered with a plastic cylinder in amounts sufficient to provide 10 mg of the […] dust per pot (corresponding to 1.4 kg of dust per 10 ares). 10-15 of the final instar larvae of the green rice leafhopper (Naphotettix cincticeps) or of the brown planthopper (Nilaparvata lugens) of strains known to be resistant both to conventional organic phosphorus and carbamate insecticides were released into each pot. After maintaining the pots at 25° C. for 72 hours, the percentage mortality of the larvae was assessed. Each test was carried out twice and the results averaged.

Series [4] deals with green peach aphids of a strain resistant to organic phosphate insecticides. Put plainly: Activity against green peach aphids (mixed formulation). The format is in vivo. Conditions: Myzus persicae, topical, read-out: Percentage mortality. The procedure:
Emulsifiable concentrates containing a total of 25% by weight of active ingredient or ingredients were prepared as described in Example 22 and diluted with water to the concentrations given in the following Table 6. Each emulsion contained as active ingredient Compound No. 1, Compound No. 9 or the known insecticide isoxathion alone or contained a mixture of isoxathion and Compound No. 1 or No. 9. The diluted emulsions were sprayed, in an amount of 10 ml per leaf, onto the leaves of the Chinese mustard "Komatsuna" bearing green peach aphids of a strain known to be resistant to organic phosphate insecticides. The leaf stalks of the leaves were placed into 30 ml bottles and the mouths of the bottles were plugged with cotton wool. After maintaining the leaves at 25° C. for 72 hours, the percentage mortality was assessed and the results are shown in Table 6. The expected percentage mortality of the combinations of Compound No. 1 or No. 9 with Isoxation is shown in parentheses in the table.

A further series deals with brown planthopper. Put plainly: Activity against the brown planthopper (mixed formulation). The format is in vivo. Conditions: Nilaparvata lugens, topical; for mortality at 50 mg: read-out: percentage mortality, insecticide alone (Compound 1 0 mg). The procedure: Soil and water were placed into plastic pots having inside diameters and heights each of about 10 cm to prepare the pots for submerged cultivation,with water to a depth of about 2 cm. Rice seedlings were then planted in the pots and maintained in a greenhouse, until they had grown to a height of about 15 cm.
Dusts were prepared, each containing 0.1% w/w of Compound No. 1 or of the known organic phosphate or carbamate insecticides listed in Table 5, and these were homogeneously applied, in the amounts specified in the Table, to each pot. 10-15 of the final instar larvae of the brown planthopper were then released onto each pot. The pots were then covered and maintained at 25° C. for 72 hours, after which the percentage mortality of the larvae was assessed.
The experiments were conducted using the known organic phosphate and carbamate insecticides either alone or together with Compound No. 1 (50 mg). The percentage mortality achieved using Compound No. 1 alone in an amount of 50 mg was also assessed and found to be 0%. The expected percentage mortality of the combination of Compound No. 1 with the known organic phosphate and carbamate insecticides was calculated by the method of C. I. Bliss [Ann. Appl. Biol. 26, 585 (1939)] and is shown in parentheses in the Table.

Series [5] is described as follows: Toxicity test in mice, mortality after 7 days (Litchfield and Wilcoxon). Also on record: species or system mice (ddY-SLC). The conditions noted are these: mouse, in vivo. Here is the method:
Each of the compounds listed in Table 1 was administered in the form of a suspension, to which 0.5% w/v gum tragacanth had been added, to a group of 5 week old ddY-SLC series mice. Each test group consisted of 10 male and 10 female mice. The LD50 value was calculated, by the method of Litchfield and Wilcoxon [J. Pharmac. Exp. Ther. 96, 99 (1949)], from the mortality rate after 7 days.

The test system of series [6] is green rice leafhopper (Naphotettix cincticeps). Put plainly: Activity against the green rice leafhopper, dust on rice seedlings. The series is classed as in vivo. Conditions: Nephotettix cincticeps, topical, 10 mg per pot, resistant strain, final instar larvae, 72 hours, 25° C., read-out: Percentage mortality, Green rice leafhopper. Here is the method:
as §2

[7] abbreviates: 0.1% dust 50 mg, 72 hours, 25° C.

Like-named read-outs stand apart in the source and are kept apart here.

Usually mortality stands for the share of the test organisms that died. On to `CN(C)C(=O)Oc1noc(C[S+](C)[O-])c1Cl` (stereo not shown) [compound 11, 4-Chloro-3-dimethylcarbamoyloxy-5-methylsulphinylmethylisoxazole], for which the mortality at 50 ppm in series [1] came out at 100%. For the same compound, the mortality at 6.25 ppm in series [2] is 100%.

`CN(C)C(=O)Oc1cc(C[S+](C)[O-])on1` (stereo not shown) [Compound No. 5, 3-Dimethylcarbamoyloxy-5-methylsulphinylmethylisoxazole]: the mortality at 50 ppm in series [1] worked out at 86%. The mortality at 6.25 ppm in series [2] was determined as 100%.

As to `COCc1cc(OC(=O)N(C)C)no1` [compound 15, 3-Dimethylcarbamoyloxy-5-methoxymethylisoxazole], in series [1], the mortality at 50 ppm was 84%. For the same compound, in series [2], the mortality at 6.25 ppm worked out at 100%.

On to `CC(C)SCc1cc(OC(=O)N(C)C)no1` [compound 4, 3-Dimethylcarbamoyloxy-5-isopropylthiomethylisoxazole], for which the mortality at 50 ppm in series [1] worked out at 81%. For the same compound, the mortality at 6.25 ppm in series [2] worked out at 96%.

Take `CSCc1onc(OC(=O)N(C)C)c1Cl` [Compound No. 9, 4-Chloro-3-dimethylcarbamoyloxy-5-methylthiomethylisoxazole]: in series [1], the mortality at 12.5 ppm was found to be 90% and the mortality at 50 ppm stood at 100%. In addition, in series [2], the mortality at 1.56 ppm was 100% and the mortality at 6.25 ppm was 100%. For the same compound, the mortality at 10 mg/pot in series [3] stood at 100%. In series [4] (72 h), the mortality at 2.5 ppm was 20.1% and the mortality at 5 ppm turned out to be 38.4%.

Regarding `CNC(=O)Oc1cccc2ccccc12` [NAC, 1-Naphthyl N-methylcarbamate], the mortality at 50 mg with brown planthopper (72 h) amounted to 29.2%.

As to `CCOP(=S)(OCC)Oc1cc(-c2ccccc2)on1` [Isoxathion, O,O-Diethyl O-(5-phenyl-3-isoxazolyl)phosphorothioate, reference compound], the mortality at 25 ppm in series [4] (Isoxathion 25 ppm, 72 hours, 25° C.) amounted to 0%. For the same compound, in series [4] (Isoxathion 50 ppm, 72 hours, 25° C.), the mortality at 50 ppm stood at 4.4%.

`CN(C)C(=O)Oc1cc(CS(C)(=O)=O)on1` [compound 7, 3-Dimethylcarbamoyloxy-5-methylsulphonylmethylisoxazole]: the mortality at 50 ppm in series [1] was found to be 82%. Also, in series [2], the mortality at 6.25 ppm was determined as 85%.

A word on the LD50: it is the dose expected to kill half of the subjects tested. `Cc1cc(OC(=O)N(C)C)no1` [3-Dimethylcarbamoyloxy-5-methylisoxazole, reference compound] returned a median lethal dose (LD50) at 168 h in series [5] (male/female mice) of 31.2 mg/kg. In addition, in series [1], the mortality at 12.5 ppm amounted to 34% and the mortality at 50 ppm amounted to 84%. Also, in series [2], the mortality at 1.56 ppm is 74% and the mortality at 6.25 ppm stood at 89%. Moreover, the mortality at 10 mg/pot in series [6] amounted to 9%. For the same compound, the mortality at 10 mg/pot in series [3] worked out at 22%.

As to `CSCc1onc(OC(=O)N(C)C)c1Br` [compound 13, 4-Bromo-3-dimethylcarbamoyloxy-5-methylthiomethylisoxazole], in series [1], the mortality at 12.5 ppm is 99% and the mortality at 50 ppm was 100%. For the same compound, in series [2], the mortality at 1.56 ppm worked out at 100% and the mortality at 6.25 ppm was 100%.

For the compound `CCS(=O)(=O)Cc1cc(OC(=O)N(C)C)no1` [compound 8, 3-Dimethylcarbamoyloxy-5-ethylsulphonylmethylisoxazole], the mortality at 50 ppm in series [1] turned out to be 80%. Besides, the mortality at 6.25 ppm in series [2] was 85%.

As to `CCSCc1cc(OC(=O)N(C)C)no1` [Compound No. 2, 3-Dimethylcarbamoyloxy-5-ethylthiomethylisoxazole], the results for the LD50 at 168 h in series [5] (female mice) and in series [5] (male mice) were 104 mg/kg and 125 mg/kg, respectively. For the same compound, in series [1], the mortality at 50 ppm stood at 100%. In series [2], the mortality at 6.25 ppm came out at 100%. Besides, the mortality at 10 mg/pot in series [6] came out at 67%; in series [3] it was 95%.

In the case of `CNC(=O)Oc1cccc(C)c1` [MTMC, 3-Tolyl N-methylcarbamate], the mortality at 50 mg with brown planthopper (setting [7]) came out at 20.8%.

In turn, `CSCc1cc(OC(=O)N(C)C)no1` [Compound No. 1, 3-Dimethylcarbamoyloxy-5-methylthiomethylisoxazole] had a median lethal dose (LD50) at 168 h in series [5] (female mice) of 109 mg/kg. Also, in series [5] (male mice), the median lethal dose (LD50) at 168 h came to 110 mg/kg. In addition, in series [1], the mortality at 12.5 ppm stood at 83% and the mortality at 50 ppm was found to be 100%. Moreover, in series [2], the mortality at 1.56 ppm was 100% and the mortality at 6.25 ppm worked out at 100%. In series [6], the mortality at 10 mg/pot was found to be 65%. In addition, in series [3], the mortality at 10 mg/pot was 100%. The mortality at 50 mg/pot in the series on brown planthopper (72 h, read-out: percentage mortality, Compound No. 1 alone) is 0%. Further, in series [4] (72 h), the mortality at 5 ppm was determined as 25.8% and the mortality at 10 ppm turned out to be 59.8%.

As to `CN(C)C(=O)Oc1noc(CS(C)(=O)=O)c1Cl` [Compound No. 12, 4-Chloro-3-dimethylcarbamoyloxy-5-methylsulphonylmethylisoxazole], in series [1], the mortality at 50 ppm was 82%. Also, the mortality at 6.25 ppm in series [2] was determined as 90%.

For the compound `CSCc1onc(OC(=O)N(C)C)c1I` [compound 14, 3-Dimethylcarbamoyloxy-4-iodo-5-methylthiomethylisoxazole], in series [1], the mortality at 50 ppm is 86%. Moreover, the mortality at 6.25 ppm in series [2] came to 100%.

Regarding `CC[S+]([O-])Cc1cc(OC(=O)N(C)C)no1` (stereo not shown) [compound 6, 3-Dimethylcarbamoyloxy-5-ethylsulphinylmethylisoxazole], the mortality at 50 ppm in series [1] was found to be 88%. The mortality at 6.25 ppm in series [2] came to 100%.

For `CCSCc1onc(OC(=O)N(C)C)c1Cl` [compound 10, 4-Chloro-3-dimethylcarbamoyloxy-5-ethylthiomethylisoxazole], the mortality at 50 ppm in series [1] came out at 97%. Moreover, the mortality at 6.25 ppm in series [2] is 100%.

For `CCCSCc1cc(OC(=O)N(C)C)no1` [compound 3, 3-Dimethylcarbamoyloxy-5-propylthiomethylisoxazole], the mortality at 50 ppm in series [1] turned out to be 86%. Besides, the mortality at 6.25 ppm in series [2] came to 100%. Moreover, the mortality at 10 mg/pot in series [6] and in series [3] was 68% in each case.

For `CNC(=O)Oc1ccccc1C(C)C` [MIPC, 2-Isopropylphenyl N-methylcarbamate], the mortality at 50 mg with brown planthopper (setting [7]) turned out to be 25%.
